Molecular target: T1, CENP-E (Homo sapiens, UniProt Q02224)
T1 construct: gene CENPE; motor domain
T1 sequence (Q02224 6-329 limits assumed): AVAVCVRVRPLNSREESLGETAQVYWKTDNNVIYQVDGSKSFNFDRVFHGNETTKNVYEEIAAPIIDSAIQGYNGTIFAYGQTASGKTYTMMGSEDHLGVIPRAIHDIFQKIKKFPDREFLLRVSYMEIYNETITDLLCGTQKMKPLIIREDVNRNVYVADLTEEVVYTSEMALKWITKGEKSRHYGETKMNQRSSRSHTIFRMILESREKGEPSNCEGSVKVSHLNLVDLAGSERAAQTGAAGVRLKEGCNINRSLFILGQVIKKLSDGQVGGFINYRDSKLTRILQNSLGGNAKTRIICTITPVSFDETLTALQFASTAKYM
Experiment: ATPase activity assay of the CENP-E motor domain
Type: biochemical

## COc1cccc2nc(C(=O)N(CCN(C)C)C3CS(=O)(=O)c4c3ccc(C(F)(F)F)c4C#N)c(-c3ccc(F)c(C)c3)n12 (single isomer, unassigned; (+)) [Cmpd-A, (+)-N-[7-cyano-1,1-dioxido-6-(trifluoromethyl)-2,3-dihydro-1-benzothiophen-3-yl]-N-[2-(dimethylamino)ethyl]-3-(4-fluoro-3-methylphenyl)-5-methoxyimidazo[1,2-a]pyridine-2-carboxamide]
  IC50: 2.2 nM
